These results are taken from patent publication US11708366B2, “Heteroaryl substituted spiropiperidinyl derivatives and pharmaceutical uses thereof” (Novartis AG, priority 2020, dated 2023).

One may read the IC50 as the concentration that inhibits the measured activity by half.

In the first assay the target is LTC4S (Homo sapiens (Human), UniProt Q16873). In words: Human whole blood HTRF assay (LTC4 release after calcium ionophore A23187). In kind it is cell-based. As to conditions: human whole blood HTRF IC50, human whole blood diluted 1:3, 4 h incubation, calcium ionophore A23187 stimulation, LTC4 by HTRF. On the procedure: B. Human Whole Blood HTRF Assay
LTC4 synthase catalyzes the conversion of Leukotriene A4 (LTA4) to Leukotriene C4 (LTC4) in the presence of reduced glutathione (GSH) as a co-substrate. For testing the inhibition of LTC4S, compounds are prepared for either eight-point or sixteen-point dose response studies in 384-well Labcyte low dead volume (LDV) plates. For eight-point dose response studies, compounds are diluted 1:5 starting at 1 μM concentration in 90% DMSO. […] Compounds are studied in duplicates. Ten wells are filled with 90% DMSO which correspond to the stimulated and unstimulated control wells. […] The morning of the assay, whole blood is collected from three human donors. Donors must be non-smokers and must not have taken NSAIDs within the 48 hours prior to blood collection. The amount of blood collected per donor depends on the amount of compounds to be tested and the dose response format in which they are to be studied (about 8 mL of whole blood for either 22 compounds in 8-point dose response format or 11 compounds in 16-point dose response format). […] 50 μL of diluted blood are then dispensed into each assay plate well with pre-dispensed compounds and DMSO for the stimulated and unstimulated controls using a Thermo Scientific™ Multidrop™ Combi reagent dispenser, and incubated at 37° C. for 4 hours. Calcium ionophore A23187 is used to induce a rapid increase in intracellular levels of Ca^2+. The Ca^2+ functions as a universal second messenger in various immune cells, such as T cells, B cells and mast cells, and is used to induce degranulation and release of eicosanoids, including LTC4, by cells contained in the whole blood samples. […] All but the unstimulated control wells are subsequently stimulated by dispensing 1 μL of the 0.5 mg/mL calcium ionophore suspension using the Thermo Scientific™ Multidrop™ Combi reagent dispenser. Plates are incubated for 15 minutes at 37° C. Plates are then centrifuged at 300 g for 10 minutes at room temperature to pellet blood cells and stop the reaction. […] Plates are sealed and stored at −80° C.
In order to measure the amount of LTC4 released by cells in the human blood samples during calcium ionophore stimulation, supernatants are analyzed using the Cisbio LTC4 homogeneous time-resolved FRET (HTRF) kit (Cisbio #64LC4PEH). […] Ten serially diluted standard curve solutions are also dispensed in duplicate into each plate as instructed in the protocol. Blank controls and cryptate control wells are also prepared. Then, 5 μL of anti-LTC4-d2 working solution are dispensed into all the wells, but the cryptate control wells. Subsequently, 5 μL of anti-LTC4-Eu3+ cryptate working solution are dispensed into all the wells. Plates are then covered with a lid and incubated at room temperature for one hour with gentle orbital shaking (˜450 rpm). […] HTRF ratios are calculated for each well by dividing the 665 nm intensity by the 620 nm intensity, and multiplying the resulting ratio by 10,000. LTC4 standard curves are interpolated for each plate and used to convert the HTRF ratio readouts into the amount of LTC4 present in each well (in ng/mL). Parametric curve fitting is used to obtain inhibition curves and IC50 values.
A general note: In TR-FRET formats the signal depends on donor and acceptor labels being close together.
As to `O=C1CC(F)CC2(CCN(c3cc(OCC(F)(F)F)ncn3)CC2)N1c1ccc(F)c(F)c1` (stereo not shown) [Example 119, 1-(3,4-difluorophenyl)-4-fluoro-9-(6-(2,2,2-trifluoroethoxy)pyrimidin-4-yl)-1,9-diazaspiro[5.5]undecan-2-one], the IC50 stood at 29 nM.

For the compound `O=C1CCCC2(CCN(c3cc(OC4CCOCC4)n[nH]c3=O)CC2)N1c1ccc(F)c(F)c1` [Example 16, 1-(3,4-difluorophenyl)-9-(3-oxo-6-((tetrahydro-2H-pyran-4-yl)oxy)-2,3-dihydropyridazin-4-yl)-1,9-diazaspiro[5.5]undecan-2-one], the IC50 worked out at 16 nM.

For the compound `Cn1nc(-n2cc(C(F)(F)F)cn2)cc(N2CCC3(CCCC(=O)N3c3ccc(F)c(F)c3)CC2)c1=O` [Example 14, 1-(3,4-difluorophenyl)-9-(2-methyl-3-oxo-6-(4-(trifluoromethyl)-1H-pyrazol-1-yl)-2,3-dihydropyridazin-4-yl)-1,9-diazaspiro[5.5]undecane-2-one], the IC50 came to 1 nM.

The same assay, now with this note: human whole blood diluted 1:3, 4 h incubation, calcium ionophore A23187 stimulation, LTC4 by HTRF; read-out: human whole blood HTRF IC50.
Consider `Nc1nc(O[C@@H]2CCCOC2)cc(N2CCC3(CCCC(=O)N3c3ccc(F)c(F)c3)CC2)n1` [Example 100, (R)-9-(2-amino-6-((tetrahydro-2H-pyran-3-yl)oxy)pyrimidin-4-yl)-1-(3,4-difluorophenyl)-1,9-diazaspiro[5.5]undecan-2-one], for which the IC50 was determined as 2 nM.

`CC1(Oc2cc(N3CCC4(CCCC(=O)N4c4ccc(F)c(F)c4)CC3)nc(N)n2)CCOC1` (racemic) [Example 104, rac-9-(2-amino-6-((3-methyltetrahydrofuran-3-yl)oxy)pyrimidin-4-yl)-1-(3,4-difluorophenyl)-1,9-diazaspiro[5.5]undecan-2-one]: the IC50 stood at 5 nM.

For the compound `CN(C)c1nc(N2CCC3(CCCC(=O)N3c3ccc(F)c(F)c3)CC2)cc(-n2cccn2)n1` [Example 53, 1-(3,4-difluorophenyl)-9-(2-(dimethylamino)-6-(1H-pyrazol-1-yl)pyrimidin-4-yl)-1,9-diazaspiro[5.5]undecan-2-one], the IC50 came out at 1140 nM.

Regarding `O=C1CCCC2(CCN(c3cc(-n4cnc(C(F)(F)F)c4)ncn3)CC2)N1c1ccc(F)c(F)c1` [Example 58, 1-(3,4-difluorophenyl)-9-(6-(4-(trifluoromethyl)-1H-imidazol-1-yl)pyrimidin-4-yl)-1,9-diazaspiro[5.5]undecan-2-one], the IC50 is 560 nM.

For the compound `O=C1CCCC2(CCN(c3nc(C4=CCC(F)(F)CC4)c[nH]c3=O)CC2)N1c1ccc(F)c(F)c1` [Example 18, 9-(6-(4,4-difluorocyclohex-1-en-1-yl)-3-oxo-3,4-dihydropyrazin-2-yl)-1-(3,4-difluorophenyl)-1,9-diazaspiro[5.5]undecane-2-one], the IC50 worked out at 2 nM.

For the compound `Nc1nc(O[C@H](C2COC2)C(F)(F)F)cc(N2CCC3(CCCC(=O)N3c3ccc(F)c(F)c3)CC2)n1` (single isomer, unassigned) [Example 89b, (R)-9-(2-amino-6-(2,2,2-trifluoro-1-(oxetan-3-yl)ethoxy)pyrimidin-4-yl)-1-(3,4-difluorophenyl)-1,9-diazaspiro[5.5]undecan-2-one or (S)-9-(2-amino-6-(2,2,2-trifluoro-1-(oxetan-3-yl)ethoxy)pyrimidin-4-yl)-1-(3,4-difluorophenyl)-1,9-diazaspiro[5.5]undecan-2-one], the IC50 is 5 nM.

For `Nc1nc(OC2CCOCC2)cc(N2CCC3(CC2)C[C@H](F)CC(=O)N3c2ccc(F)c(F)c2)n1` (single isomer, unassigned) [Example 116b, (S)-9-(2-amino-6-((tetrahydro-2H-pyran-4-yl)oxy)pyrimidin-4-yl)-1-(3,4-difluorophenyl)-4-fluoro-1,9-diazaspiro[5.5]undecan-2-one, or (R)-9-(2-amino-6-((tetrahydro-2H-pyran-4-yl)oxy)pyrimidin-4-yl)-1-(3,4-difluorophenyl)-4-fluoro-1,9-diazaspiro[5.5]undecan-2-one], the IC50 was 33 nM.

In the case of `O=C1CCCC2(CCN(c3cc(O[C@@H]4CCOC[C@@H]4F)nc(CO)n3)CC2)N1c1ccc(F)c(F)c1` (racemic) [Example 107, rac-1-(3,4-difluorophenyl)-9-(6-(((3S,4R)-3-fluorotetrahydro-2H-pyran-4-yl)oxy)-2-(hydroxymethyl)pyrimidin-4-yl)-1,9-diazaspiro[5.5]undecan-2-one], the half-maximal inhibitory concentration (IC50) amounted to 6 nM.

Consider `O=C1CCCC2(CCN(c3cc(-n4ccc(C(F)(F)F)n4)ncn3)CC2)N1c1ccc(F)c(F)c1` [Example 57, 1-(3,4-difluorophenyl)-9-(6-(3-(trifluoromethyl)-1H-pyrazol-1-yl)pyrimidin-4-yl)-1,9-diazaspiro[5.5]undecan-2-one], for which the IC50 was 850 nM.

For `Cc1nc(N2CCC3(CCCC(=O)N3c3ccc(F)c(F)c3)CC2)cc(-n2cccn2)n1` [Example 48, 1-(3,4-difluorophenyl)-9-(2-methyl-6-(1H-pyrazol-1-yl)pyrimidin-4-yl)-1,9-diazaspiro[5.5]undecan-2-one], the IC50 worked out at 45 nM.

For the compound `CC1(O)CN(c2nc(N)cc(N3CCC4(CCCC(=O)N4c4ccc(F)c(F)c4)CC3)n2)C1` [Example 43, 9-(6-amino-2-(3-hydroxy-3-methylazetidin-1-yl)pyrimidin-4-yl)-1-(3,4-difluorophenyl)-1,9-diazaspiro[5.5]undecan-2-one], the IC50 amounted to 400 nM.

As to `N#Cc1nc(N2CCC3(CCCC(=O)N3c3ccc(F)c(F)c3)CC2)cc(-n2cccn2)n1` [Example 49, 4-(1-(3,4-difluorophenyl)-2-oxo-1,9-diazaspiro[5.5]undecan-9-yl)-6-(1H-pyrazol-1-yl)pyrimidine-2-carbonitrile], the 50% inhibitory concentration (IC50) stood at 88 nM.

In the case of `CC1(C(Oc2cc(N3CCC4(CCCC(=O)N4c4ccc(F)c(F)c4)CC3)nc(N)n2)C(F)(F)F)COC1` (racemic) [Example 96, rac-9-(2-amino-6-(2,2,2-trifluoro-1-(3-methyloxetan-3-yl)ethoxy)pyrimidin-4-yl)-1-(3,4-difluorophenyl)-1,9-diazaspiro[5.5]undecan-2-one], the IC50 was found to be 3 nM.

Regarding “(S)-9-(2-amino-6-(2,2,2-trifluoro-1-(oxetan-3-yl)ethoxy)pyrimidin-4-yl)-1-(3,4-difluorophenyl)-1,9-diazaspiro[5.5]undecan-2-one or (R)-9-(2-amino-6-(2,2,2-trifluoro-1-(oxetan-3-yl)ethoxy)pyrimidin-4-yl)-1-(3,4-difluorophenyl)-1,9-diazaspiro[5.5]undecan-2-one [Example 89a]”, the IC50 came out at 1 nM.

Consider `Nc1nc(C2=CCC(F)(F)CC2)cc(N2CCC3(CCCC(=O)N3c3ccc(F)c(F)c3)CC2)n1` [Example 74, 9-(2-amino-6-(4,4-difluorocyclohex-1-en-1-yl)pyrimidin-4-yl)-1-(3,4-difluorophenyl)-1,9-diazaspiro[5.5]undecan-2-one], for which the IC50 worked out at 4 nM.

Take `NC(=O)c1nc(N2CCC3(CCCC(=O)N3c3ccc(F)c(F)c3)CC2)cc(-n2cc(C(F)(F)F)cn2)n1` [Example 68]: the half-maximal inhibitory concentration (IC50) turned out to be 120 nM.

Regarding `[2H]C([2H])(Oc1cc(N2CCC3(CCCC(=O)N3c3ccc(F)c(F)c3)CC2)nc(N)n1)C(F)(F)F` [Example 92, 9-(2-amino-6-(2,2,2-trifluoroethoxy-1,1-d2)pyrimidin-4-yl)-1-(3,4-difluorophenyl)-1,9-diazaspiro[5.5]undecan-2-one], the IC50 was 5 nM.

With `O=C1CCCC2(CCN(c3cc(O[C@H]4CCOC4)nc(CO)n3)CC2)N1c1ccc(F)c(F)c1` [Example 109, (S)-1-(3,4-difluorophenyl)-9-(2-(hydroxymethyl)-6-((tetrahydrofuran-3-yl)oxy)pyrimidin-4-yl)-1,9-diazaspiro[5.5]undecan-2-one], the IC50 came to 15 nM.

As to `Nc1nc(OCC(F)(F)F)cc(N2CCC3(CCCC(=O)N3c3ccc(F)c(F)c3)CC2)n1` [Example 91, 9-(2-amino-6-(2,2,2-trifluoroethoxy)pyrimidin-4-yl)-1-(3,4-difluorophenyl)-1,9-diazaspiro[5.5]undecan-2-one], the IC50 was 3 nM.
